Test results: ChEMBL document CHEMBL1201862, “PubChem BioAssay data set” (2004)
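Values below derive from 48-hour exposures of cells grown in 96-well plates, with endpoints linearly interpolated between the two concentrations bracketing the appropriate inhibition level. Here, GI50 denotes the concentration required for 50% inhibition of growth.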 Active and inactive are the calls of the source. Cut-off read from the data, not from the text of the source: active = GI50 up to about 1.1 µM and inactive = higher.

Legend:
Experiment in all cases: NCI tumour cell line growth inhibition, 48 h
SK-MEL-2 = tested on: SK-MEL-2
SK-MEL-5 = tested on: SK-MEL-5
UACC-62 = tested on: UACC-62
SNB-75 = tested on: SNB-75
SR = tested on: SR
MDA-MB-231 = tested on: MDA-MB-231
RPMI-8226 = tested on: RPMI-8226
SF-268 = tested on: SF-268
KM12 = tested on: KM12
HOP-62 = tested on: HOP-62
Malme-3M = tested on: Malme-3M
OVCAR-5 = tested on: OVCAR-5
ACHN = tested on: ACHN
OVCAR-8 = tested on: OVCAR-8
NCI-H23 = tested on: NCI-H23
UACC-257 = tested on: UACC-257
MOLT-4 = tested on: MOLT-4
SN12C = tested on: SN12C
HL-60 = tested on: HL-60
HCC 2998 = tested on: HCC 2998

Measured: GI50

O=C1/C(=C/c2cccs2)NC(=S)N1CN1CCCC(CO)C1 (stereo unspecified)
inactive: SK-MEL-2 > 100 µM | SK-MEL-5 > 100 µM | UACC-62 > 100 µM | SNB-75 > 100 µM | SR > 100 µM | MDA-MB-231 > 100 µM | RPMI-8226 99.1 µM | SF-268 > 100 µM | KM12 > 100 µM | HOP-62 > 100 µM | Malme-3M > 100 µM | OVCAR-5 > 100 µM | ACHN > 100 µM | OVCAR-8 > 100 µM | NCI-H23 > 100 µM | UACC-257 > 100 µM | MOLT-4 > 100 µM | SN12C > 100 µM

CCCCCCCCCCOC1C(C(C)OCCCN(C)C)OC2OC3(CCCCC3)OC21 (stereo unspecified)
inactive: SK-MEL-2 15.8 µM | SK-MEL-5 15.8 µM | UACC-62 13.3 µM | SNB-75 5.48 µM | MDA-MB-231 15.3 µM | RPMI-8226 4.32 µM | SF-268 15.3 µM | HOP-62 16.4 µM | Malme-3M 15.2 µM | HL-60 6.37 µM | OVCAR-5 11.7 µM | ACHN 17.1 µM | OVCAR-8 18.8 µM | NCI-H23 10.2 µM | HCC 2998 13.3 µM | UACC-257 20.8 µM | MOLT-4 12.9 µM | SN12C 16.3 µM

O=C1/C(=C/c2n[nH]cc2-c2ccc(Cl)cc2)C(=O)N(c2ccccc2)C1c1ccccc1 (stereo unspecified)
inactive: SK-MEL-2 15.2 µM | SK-MEL-5 13.8 µM | UACC-62 11.5 µM | SR 11.8 µM | MDA-MB-231 18.9 µM | RPMI-8226 13.7 µM | SF-268 13.7 µM | KM12 20.9 µM | HOP-62 17.4 µM | Malme-3M 22.9 µM | HL-60 12.9 µM | ACHN 20.1 µM | NCI-H23 13.3 µM | UACC-257 19.7 µM | MOLT-4 16.9 µM | SN12C 29.1 µM

Cc1ccc(/C=N/n2c(=O)[nH]c3ccccc3c2=O)cc1
inactive: SK-MEL-2 > 100 µM | SK-MEL-5 > 100 µM | UACC-62 > 100 µM | SR > 100 µM | MDA-MB-231 > 100 µM | RPMI-8226 > 100 µM | SF-268 > 100 µM | KM12 > 100 µM | HOP-62 > 100 µM | HL-60 > 100 µM | OVCAR-5 > 100 µM | ACHN > 100 µM | NCI-H23 > 100 µM | UACC-257 > 100 µM | MOLT-4 > 100 µM | SN12C > 100 µM

NC12c3c4cccc3Oc3cccc(c31)Oc1cccc(c12)O4
inactive: SK-MEL-2 > 50 µM | UACC-62 > 50 µM | SNB-75 > 50 µM | SR > 50 µM | MDA-MB-231 > 50 µM | RPMI-8226 > 50 µM | SF-268 > 50 µM | KM12 > 50 µM | HOP-62 > 50 µM | HL-60 18.2 µM | OVCAR-5 > 50 µM | ACHN > 50 µM | OVCAR-8 > 50 µM | NCI-H23 > 50 µM | UACC-257 > 50 µM | MOLT-4 > 50 µM | SN12C > 50 µM

CC(=O)N(CN1C(=O)CCC1C(=O)O)c1ccccc1Cl (stereo unspecified)
inactive: SK-MEL-2 > 100 µM | SK-MEL-5 > 100 µM | UACC-62 > 100 µM | SNB-75 > 100 µM | MDA-MB-231 > 100 µM | RPMI-8226 > 100 µM | SF-268 > 100 µM | KM12 > 100 µM | HOP-62 > 100 µM | Malme-3M > 100 µM | HL-60 > 100 µM | OVCAR-5 > 100 µM | ACHN > 100 µM | OVCAR-8 > 100 µM | NCI-H23 > 100 µM | HCC 2998 > 100 µM | UACC-257 > 100 µM | MOLT-4 > 100 µM | SN12C > 100 µM

COc1c(C2(c3ccc(F)cc3)SCCCS2)c(=O)c1=O
inactive: SK-MEL-2 > 100 µM | SK-MEL-5 > 100 µM | UACC-62 > 100 µM | SNB-75 > 100 µM | MDA-MB-231 > 100 µM | RPMI-8226 > 100 µM | SF-268 > 100 µM | KM12 > 100 µM | HOP-62 > 100 µM | Malme-3M > 100 µM | HL-60 31.6 µM | OVCAR-5 > 100 µM | ACHN > 100 µM | OVCAR-8 > 100 µM | NCI-H23 > 100 µM | HCC 2998 > 100 µM | UACC-257 > 100 µM | MOLT-4 > 100 µM | SN12C > 100 µM

CC1OC(OC2C(O[C@H]3CC[C@@]4(C)C(=CC[C@H]5[C@@H]6C[C@@H]7O[C@]8(CC[C@@H](CO)CO8)[C@@H](C)[C@@H]7[C@@]6(C)CC[C@@H]54)C3)OC(CO)C(O)C2OC2OC(CO)C(O)C(O)C2O)C(O)C(O)C1O (stereo partly specified)
inactive: SK-MEL-2 2.03 µM | SK-MEL-5 1.64 µM | UACC-62 1.83 µM | SNB-75 1.58 µM | MDA-MB-231 1.79 µM | RPMI-8226 1.94 µM | SF-268 1.85 µM | KM12 1.91 µM | HOP-62 1.72 µM | Malme-3M 1.81 µM | HL-60 1.44 µM | OVCAR-5 2.22 µM | ACHN 1.73 µM | OVCAR-8 1.78 µM | NCI-H23 2.01 µM | HCC 2998 1.62 µM | UACC-257 1.77 µM | SN12C 1.8 µM
